Data taken from patent US20210340130A1, “Compositions and methods for treating attention deficit disorders” (priority 2016, published 2021).
Where two headings read alike, the source gives them in different places.

Legend:
[1] = tested on: aged Rhesus macaque monkeys; assay: Delayed match-to-sample test; assay type: in vivo, Monkey (Rhesus); settings: for Minimum Effective Dose: PO
Experimental: Further elucidating the potent behavioral and cognitive effects of exemplary ampakines useful within the invention, additional studies using the well known Monkey Delayed Match to Sample assay were conducted. CX1739 was evaluated using aged Rhesus macaque monkeys (18 to 33 years old), undertaking the delayed match-to-sample (DMTS) task. The stimuli included red, blue, or yellow rectangles. A trial was initiated by presentation of a sample rectangle composed of one of the three colors. The sample rectangle remained in view until the monkey touched within its borders to initiate a pre-programmed delay (retention) interval. Following the delay interval, two choice rectangles were presented, with one of the two choice colors being the color matching the stimulus and the other (incorrect) color as one of the two remaining colors. A correct (matching) choice was reinforced. Non-matching choices were neither reinforced nor punished. The duration for each delay interval was adjusted for each subject until […] of group performance accuracy approximated zero delay (85-100% of trials answered correctly), short delay interval (75-84% correct), medium delay interval (65-74% correct), and long delay interval (55-64% correct). The inter-trial interval was 5 seconds and each session consisted of 96 trials.

[2] = tested on: hippocampal slices (CA1 population spikes)
Experimental: Slice Seizure Assay In these studies extracellular field potentials recording (Population Spikes) in hippocampal slices were used to determine convulsant activity (potential seizure liability). Transverse 300-400 μm hippocampal slices were taken from adult male Sprague-Dawley rats (4-6 week old) and incubated in a submerge slice recording chamber system for 30 to 60 min. The chamber was perfused with oxygenated artificial cerebral spinal fluid (ACSF) comprising (in mM): NaCl 124, KCl 3.0, KH2PO4 1.25, CaCl2.34, MgSO4 2.5, NaHCO3 26 and glucose 10 at room temperature. Population Spike (PS) recordings were made with glass electrodes filled with 2 M NaCl (1-5 megaohm) places in the region of pyramidal cell body of CA1. Electrical stimuli were produced with twisted bipolar nichrome wire electrodes in the Schaffer-commissural fiber afferents. Population spike was induced by activating Schaffer-commissural fiber using single pulse stimulation with delivered at 0.05 Hz. The maximal amplitude of PS was determined by increase stimulating intensity till second spike appears. Then the intensity was decreased to induce a 50% to 60% of maximal response. The amplitude of PS was measured for each response and plotted against time. At same time the amplitude of second PS and/or number of PS was measured and plotted against time. The size of the second PS and numbers of PS were used to estimate the seizure potential or seizure state. With 20 to 50 min stable baseline established testing compound was perfused for 10 to 20 min at each concentration to observe the effect. […] The perfusion then was switched to control ACSF and continued to record until drug effect was washed back to the baseline. CX717 and CX1739 exemplary test ampakine compounds were prepared by dissolving in DMSO and then added to ACSF.
The upper 3 panels of FIG. 5 show amplitudes for PS 1, 2 and 3 m respectively. Lower panel is the measurement of the number of PS.

adult patients with ADHD = assay: Phase 2 randomized, double-blind, 2-period crossover trial in adults with ADHD; assay type: in vivo
Experimental: *This phase 2 study evaluated the efficacy, tolerability and safety of CX717 in the treatment of adult patients with ADHD. The study was designed and executed as a randomized, double-blind, multi-center, 2-period crossover study comparing 2 doses of CX717 (200 mg, or 800 mg, BID) with placebo. Each treatment period lasted 3 weeks with a 2-week washout in between. Subjects met DSM-IV criteria for adult ADHD and had moderate to severe symptoms. The primary efficacy measure was the change from baseline on the ADHD Rating Scale (ADHD-RS) with adult ADHD prompts.
The present study further examined the clinical efficacy, tolerability and safety of CX717 as a drug treatment for adults with ADHD. […] Each treatment period was 3 weeks in duration with a 2-week washout in between. The study design was modeled after several similarly published ADHD studies with atomoxetine and stimulants, (Spencer et al.) with sample sizes in the mid 20s. Since this is the first such study with CX7171 in ADHD, it is assumed that efficacy would be achieved using historical assumptions in effect size, therefore, a total of 60 subjects were to be randomized.
All patients met DSM-IV criteria for adult ADHD, established by the Adult ADHD Clinical Diagnostic Scale (ACDS) Version 1.2. All patients gave written informed consent prior to enrollment and the conduct of the study was approved by either the […] Review Board (IRB) at each site or by the central IRB. Each subject had at least moderately severe ADHD symptoms (ADHD-RS score of ≥22; Clinician's Global Impression of Severity [CGI-S] score of ≥4). Each subject was male, and between 18-50 years old, inclusively. Male patients were selected because the necessary reproductive toxicology studies that would have allowed women of childbearing potential to be included in the study had not been completed.
CX717 capsules were administered orally as 200 mg BID or 800 mg BID doses. […] The study was divided into a series of periods: screening period—up to 4 weeks, treatment period 1-3 weeks; wash-out period—2 weeks; treatment period 2-3 weeks; follow-up period—approximately 1 week.
The primary efficacy outcome measure was the comparison of each dose of CX717 versus placebo on the change from baseline in ADHD symptoms as measured by the ADHD-RS at Week 3. Secondary efficacy parameters included comparisons of each dose of CX717 versus placebo for the ADHD-RS Inattentiveness Subscale Score of the ADHD-RS.
Safety was evaluated by adverse events (AEs), clinical laboratory tests, vital signs, physical examination, and electrocardiograms (ECGs).
The primary efficacy endpoint was the change from baseline in the ADHD-RS total score. Variables for the primary endpoint as well as for the secondary endpoint were based on within patient comparisons of high dose with placebo and low dose with placebo. The analyses treated subjects receiving high dose or placebo in either order as a unique entity and similarly, subjects who received low dose or placebo in either order as a unique group of its own. The primary efficacy analysis utilized the paired t-test. Descriptive statistics (number of observations, mean, standard deviation, median, minimum and maximum values) for the total score and the change from baseline were calculated by treatment group and visit and the last value was presented for both the intent-to-treat (ITT) and per protocol (PP) populations. All hypotheses testing for change from Baseline of scores, except testing for significant interaction, were performed at the 2-tailed 5% alpha significance level. P-values, based on 2-tailed tests, were rounded to 1 more decimal place than the standard deviation, up to a maximum of 3 decimal places; p-values <0.001 were presented as ‘<0.001’ in all tables.

CN(C(=O)c1ccc2nonc2c1)C1CCOCC1 [CX1739, N-Methyl-N-tetrahydro-2H-pyran-4-yl-[2,1,3]-benzoxadiazole-5-carboxamide]
Minimum Effective Dose [1]: 0.3 mg/kg
performance with medium or long delays ([1]; oral, 45 min prior to testing): did not improve performance
mean accuracies during short delay trials relative to vehicle ([1]; oral, 45 min prior to testing, particularly the two higher doses, persisted at 24 hours): increased
task accuracy at the Best Dose ([1]; sessions 45 min after administration, P=0.027, restricted to long delay trials): statistically significant increase in task accuracy
seizure activity (population spikes) ([2]; 100 μM for 20 min and then 200 μM for another 20 min): no sign of seizure activity
amplitude of the first PS ([2]; 100 μM then 200 μM perfusion): did not change the amplitude of the first PS

O=C(c1ccc2nonc2c1)N1CCOCC1 [CX717, 1-(benzofurazan-5-ylcarbonyl)morpholine]
Minimum Effective Dose [1]: 0.8 mg/kg
seizure activity (population spikes) ([2]; concentrations up to 600 uM): did not display seizure activity
ADHD-RS total and subscales versus placebo (adult patients with ADHD; 200 mg BID): no statistically significant differences
deaths or serious adverse events (adult patients with ADHD; 200 mg or 800 mg BID for 3 weeks): No deaths or serious adverse events
total ADHD-RS, repeated measures analysis at endpoint (adult patients with ADHD; 800 mg BID vs placebo, p=0.002): superior efficacy compared to placebo
ADHD-RS hyperactivity subscale, repeated measures analysis (adult patients with ADHD; 800 mg BID vs placebo, p=0.017): superior efficacy compared to placebo
ADHD-RS inattentiveness subscale, repeated measures analysis (adult patients with ADHD; 800 mg BID vs placebo, p=0.027): superior efficacy compared to placebo
mean change from baseline of ADHR-RS total score (adult patients with ADHD; 800 mg, 504 h): −9.95
ADHD-RS hyperactivity subscale mean difference vs placebo (adult patients with ADHD; active dose vs. placebo, last value): 1.94
tolerability and safety parameters (adult patients with ADHD; either dose (200 mg or 800 mg BID), 3 weeks): well tolerated with no clinically significant changes in cardiovascular and other safety parameters
overall incidence of treatment-emergent adverse events (TEAEs) (adult patients with ADHD; high dose (800 mg BID), placebo high dose 56%): 75%
ADHD-RS hyperactivity subscale mean difference vs placebo (adult patients with ADHD; high dose, Week 1): 2.00
ADHD-RS hyperactivity subscale mean score (change from baseline) (adult patients with ADHD; high dose, Week 1, ITT, placebo −2.22, p=0.192): −4.22
ADHD-RS hyperactivity subscale mean difference vs placebo (adult patients with ADHD; high dose, Week 3): 3.18
ADHD-RS hyperactivity subscale mean score (change from baseline) (adult patients with ADHD; high dose, Week 3, ITT, placebo −2.78, p=0.050): −5.68
difference from placebo in mean change of ADHR-RS total score (adult patients with ADHD; high dose, after 3 weeks): −4.73
ADHD-RS hyperactivity subscale mean difference vs placebo (adult patients with ADHD; high dose, last value): 3.00
most frequently reported adverse events (adult patients with ADHD; in vivo): Sleep disturbances and headache
ADHD-RS hyperactivity subscale versus placebo, repeated measures (adult patients with ADHD; low dose): No difference
ADHD-RS total score versus placebo (adult patients with ADHD; low dose (200 mg BID)): did not differ from placebo
overall incidence of treatment-emergent adverse events (TEAEs) (adult patients with ADHD; low dose (200 mg BID), placebo low dose 55%): 73%
